Laboratory results published in patent US9181260B2, “Crystalline form of sitagliptin sulfate” (MOEHS IBERICA S.L., priority 2012, dated 2015).
Structures can show the parent of a compound that is named as a salt. Where two headings read alike, the source gives them in different places.

Key:
Assay type in all cases: physicochemical
[1] = Water content determined by thermal gravimetric analysis (TGA)
Experimental: TGA analyses were performed using a Mettler/Toledo TGA/SDTA851e thermobalance. Parameters: heating range from 30 to 300° C. with a 10° C./min ramp and a 50 ml/min dry N2 flow.

[2] = Accelerated stability study (40° C.±2° C., 75%±5% RH), water content by Karl-Fisher and XRPD; details: for Water content: Karl-Fisher
Experimental: Water Content (Karl-Fisher Method) The analysis is performed in a Mettler Toledo W30. It is determined in 0.2 g of sample using Hydranal medium K as solvent and Hydranal composite 5K as titrant. Accelerated stability study of the M form of sitagliptin sulfate was performed under the following conditions: temperature of 40° C.±2° C. and relative humidity (RH) of 75%±5%. The water content of the sample was determined at the beginning of the study, at 3 months and at 6 months, by means of Karl-Fisher. The crystalline form of sitagliptin sulfate after 6 months was analyzed by means of X-ray diffraction.

[3] = Crystalline form after grinding
Experimental: 100.0 g (245.5 mmoles) of sitagliptin base were dissolved at 20-22° C. in a mixture of 750 ml of absolute ethanol and 120 ml of water. A previously prepared solution of 98.1% H2SO4 ([…], 240.9 mmoles) in ethanol (760 ml) was slowly added to said solution, maintaining the temperature between 20-25° C. When approximately ⅔ of the total volume of the acid solution had been added, the addition was stopped and 1.0 g (1.978 mmoles) of crystalline form M of sitagliptin sulfate obtained by means of any of the processes described in Examples 1 and 3-5 was added to the reaction mixture. The presence of a white precipitate that remains undissolved was immediately noticed. The addition of the acid solution was continued and once this ended, the mixture obtained was maintained at a temperature of 20-25° C. for 4 hours. The solid obtained was filtered and washed in the filter with absolute ethanol (2×100 ml). The wet product was dried in a vacuum oven at 40° C. for 22 hours to yield 97.1 g (192.1 mmoles) of a white crystalline solid (77.6%). XRPDs both of the wet product (FIG. 3) and of the dry product (FIG. 2) which correspond with form M of sitagliptin sulfate were performed. […] (FIG. 8). The water content determined by TGA (FIG. 13) is 0.02%.

[4] = Hygroscopicity study, European Pharmacopeia Ed. 6.0 Section 5.11 (degree of hydration at 80% and 97% RH, 25° C.); details: for Higroscopicity RH 80% / Higroscopicity RH 97%: water content by weight difference
Experimental: International application WO 2009/085990 A2 describes the production of an anhydrous crystalline form of sitagliptin sulfate salt and its characterization by means of DSC (Differential Scanning calorimetry), TGA (Thermal Gravimetric Analysis) and XRPD (X-Ray Powder Diffraction). However and in the hands of the inventors of the present application, said crystalline form is hygroscopic under the conditions of the European Pharmacopeia Ed. 6.0 Section 5.11 (24 hours at 80% RH and 25° C.), readily reaching a water proportion corresponding to a dihydrate form. […] A stability study of the M form of sitagliptin sulfate was performed under conditions of the European Pharmacopeia Ed. 6.0 Section 5.11, i.e., the degree of hydration was measured at 80% relative humidity (RH) at a temperature of 25° C. Additionally, the degree of hydration was also measured at 97% relative humidity (RH) at a temperature of 25° C. The results are shown in Table 1, wherein the higroscopicity (expressed as the water content by means of weight difference, following the procedure described in European Pharmacopeia Ed. 6.0 Section 5.11) of samples of 1 g of sitagliptin sulfate polymorph M of the present invention after storage at 1 day, 3 days, 7 days, 14 days and 21 days at 80% RH and 97% RH, respectively. […] 6.0 Section 5.11, i.e., the degree of hydration is less than 0.2%. The crystalline form of sitagliptin sulfate after 21 days at a relative humidity of 80% and 97%, respectively, were analyzed by means of X-ray diffraction.

[5] = 80% RH and 97% RH, 25° C., up to 21 days

## N[C@@H](CC(=O)N1CCn2c(nnc2C(F)(F)F)C1)Cc1cc(F)c(F)cc1F [form M, addition salt of sitagliptin with sulfuric acid (1:1)]
[1]
  water content determined by TGA: less than 0.05%
[1]; listed as Example 1
  water content determined by TGA: 0.02%
[1]; listed as Example 2
  water content determined by TGA: 0.02%
[1]; listed as Example 3
  water content determined by TGA: 0.03%
[1]; listed as Example 4
  water content determined by TGA: 0.01%
[1]; listed as Example 5
  water content determined by TGA: 0.004%
[2]; 3 months at 40° C.±2° C., 75%±5% RH
  Water content: 0.09%
[2]; 6 months at 40° C.±2° C., 75%±5% RH
  Water content: 0.01%
[2]; 6 months, 40° C.±2° C., 75%±5% RH
  crystalline form by XRPD after storage: corresponding to form M of sitagliptin sulfate
[2]; Initial
  Water content: 0.09%
[3]
  crystalline form of the ground product: still the crystalline form of sitagliptin sulfate object of the present invention
[4]; 25° C., 80% RH, 1 day
  Higroscopicity RH 80%: 0.07%
[4]; 25° C., 80% RH, 3 days
  Higroscopicity RH 80%: 0.10%
[4]; 25° C., 80% RH, 7 days
  Higroscopicity RH 80%: 0.12%
[4]; 25° C., 80% RH, 14 days
  Higroscopicity RH 80%: 0.10%
[4]; 25° C., 80% RH, 21 days
  Higroscopicity RH 80%: 0.07%
[4]; 25° C., 97% RH, 1 day
  Higroscopicity RH 97%: 0.05%
[4]; 25° C., 97% RH, 3 days
  Higroscopicity RH 97%: 0.08%
[4]; 25° C., 97% RH, 7 days
  Higroscopicity RH 97%: 0.06%
[4]; 25° C., 97% RH, 14 days
  Higroscopicity RH 97%: 0.06%
[4]; 25° C., 97% RH, 21 days
  Higroscopicity RH 97%: 0.07%
[4]; [5]
  degree of hydration: less than 0.2%
  hygroscopicity (in words): non-hygroscopic
[4]; 80% relative humidity, 25° C.
  degree of hydration: less than 0.2%
[4]; 80% relative humidity, 25° C., Ph. Eur. 6.0 Section 5.11
  hygroscopicity (in words): non-hygroscopic
[4]; 21 days, 25° C., 80% RH
  crystalline form by XRPD after storage: corresponding to form M of sitagliptin sulfate
[4]; 21 days, 25° C., 97% RH
  crystalline form by XRPD after storage: corresponding to form M of sitagliptin sulfate

## N[C@@H](CC(=O)N1CCn2c(nnc2C(F)(F)F)C1)Cc1cc(F)c(F)cc1F.O=S(=O)(O)O [reference compound]
[4]; 24 hours at 80% RH and 25° C., in the hands of the inventors
  hygroscopicity (in words): hygroscopic
